The source of these data is US20200123127A1, “REMOVAL OF SENESCENCE-ASSOCIATED MACROPHAGES” (EVERON BIOSCIENCES, INC., priority 2016, published 2020).

Assay [1] relates to β-galactosidase in SAMs. Nature of the assay: β-galactosidase activity (4-MUG hydrolysis) in alginate bead-elicited macrophages (SAMs) ex vivo. It is filed as cell-based, mouse. The following applies: for effect on β-gal activity (polarizing agents): 72 hours, IFN-γ 10 ng/mL, Poly(I:C) 10 μg/mL, IFN-α 100 U/mL, IL-4 20 ng/mL, IL-13 10 ng/ml; for β-galactosidase production by SAM cells (MUG assay): concentrations of 2.5 to 10 μM. Here is the method: (§1) FIG. 7. Immunomodulatory regulation of p16(Ink4a) and SAβG in macrophages. Peritoneal lavage cells elicited by alginate-encapsulated SCs from p16^Ink4a/Luc mice were treated ex vivo with immunomodulatory agents for 72 hours. A) p16 promoter-dependent luciferase activity (black bars) and […] activity (via 4-MUG hydrolysis) (gray bars) were measured following treatment with M1- and M2-polarizing stimuli: LPS at 1 ng/mL, IFN-γ at 10 ng/mL, LPS/IFN-γ co-treatment, Poly(I:C) at 10 μg/mL, IFN-α at 100 U/mL, IL-4 at 20 ng/mL, IL-13 at 10 ng/ml, and IL-4/IL-13 co-treatment. Results are shown as the mean±standard deviation for at least 3 independent experiments, with statistical significance between treated compared to non-treated samples depicted. B) Dose-dependent response of JAK1/2 inhibitor Ruxolitinib on luciferase activity in elicited macrophages in the presence (gray bars) or absence (black bars) of IL-4 (10 ng/mL) stimulation. Enzyme activities are expressed as the percent activity relative to non-treated (NT) controls per cell. Statistical significance between IL-4 stimulated and non-stimulated cells at each concentration of ruxolitinib is shown.
FIG. 13. Effect of TA-4812 on β-gal expression and cell viability. Asenins TA-04812-1, was assayed for its effects on SAM viability, proliferation, and β-gal expression. SAM viability was determined using the resazurin cell viability assay (Res). Cell proliferation was assessed using the CyQuant assay (CyQUANT® Direct Cell proliferation Assay, ThermoFisher Scientific, Waltham, Mass., Catalog # C35011, performed according to manufacturer's instructions) (CyQ). β-gal production was assessed using the MUG assay, a quantitative assay to determine the level of β-gal expression using 4-methylumbelliferylgalactopyranoside (MUG) as substrate.
A fluorogenic substrate for β-galactosidase, 4-MUG (4-Methylumbelliferyl β-D-Galactopyranoside; Sigma-Aldrich), was used for the quantitation of enzymatic β-gal activity from cell lysates, assayed under β-gal^pH6 conditions (i.e. pH 6.0). In a 96-well white microplate, 5 μl of diluted cell lysate was combined with 45 μl of fluorogenic β-gal^pH6 reaction buffer: 1 mM 4-MUG in 100 mM citric acid/sodium phosphate buffer, pH 6.0, containing 2 mM MgCl2, 150 mM NaCl and 0.02% NP-40. Kinetics of product formation at room temperature was determined by measuring fluorescence (Ex/Em 360 nm/440 nm) of the reaction mixture at regular intervals over a 2-hour time period. Reaction endpoints were determined by addition of 150 μl of 700 mM sodium carbonate. The rate of reaction (RFU/min) for each sample was determined, and normalized per μg of protein.
To determine whether macrophage polarization regulates p16(Ink4a) and SAβG expression, peritoneal lavage from p16^Ink4a/Luc mice elicited by our alginate bead model were stimulated with M1- and M2-inducing agents and subsequently, luciferase activity (driven by endogenous p16(Ink4a) promoter) and β-galactosidase activity (assayed via 4-MUG hydrolysis) were measured (FIG. 7A). […] Consistently, LPS decreased the intensity of SAβG staining in treated macrophages. The response of macrophages to LPS was rapid, with a significant decrease in luciferase activity observed within 8 hours (˜40% decrease).
We investigated whether the mechanisms regulating the expression of these traits in macrophages were similar to those found in SCs. Using cells isolated from p16^Ink4a/Luc mice, the dose-dependent response of luciferase and β-galactosidase activities to immunomodulatory stimuli in macrophages was compared to that of proliferating and irradiation-induced senescent adipose-derived mesenchymal stromal cells. […] LPS stimulation of alginate bead model-elicited macrophages reduced luciferase activity, with maximal inhibition (˜85%) observed at concentrations ≥1 ng/mL (FIG. 10A). In addition, β-galactosidase activity was reduced by 40% at 10 ng/mL (FIG. 10B). […]

The subject of assay [2] is p16(Ink4a) expression in SAMs. Nature of the assay: p16(Ink4a) promoter-dependent luciferase activity in alginate bead-elicited macrophages (SAMs) ex vivo. The format is cell-based, mouse. The following applies: for Modulation of p16(Ink4a): SAMs: SAMs from NDF alginate beads, dose-response testing; for effect on luciferase activity (M1-inducing agents): IFN-γ 10 ng/mL, Poly(I:C) 10 μg/mL, IFN-α 100 U/mL, 72 hours. Here is the method:
as §1
FIG. 8. Immunomodulatory regulation of p16(Ink4a) and SAβG in macrophages. Peritoneal lavage cells elicited by alginate-encapsulated SCs from p16^Ink4a/Luc mice were treated ex vivo with immunomodulatory agents for up to 72 hours. (A) mRNA expression of p16(Ink4a) and β-galactosidase (Glb1) in macrophages (relative to B2m expression) with or without LPS stimulation for 72 hours analyzed via qRT-PCR, normalized to non-treated controls. (B) Microphotograph of SAβG-stained adherence-selected macrophages with or without stimulation with LPS (1 ng/mL) for 72 hours (10× objective). (C&D) Kinetics of p16(Ink4a) promoter-dependent luciferase activity per cell with or without LPS stimulation (C) or IL-4 stimulation (D), normalized to activity from non-treated cells at time zero. Results are shown as the mean±standard deviation for at least 3 experiments. Statistical significance with respect to non-treated control at time zero is indicated. (E) Luciferase activity and (3-galactosidase activity (via 4-MUG hydrolysis) from proteose peptone-elicited lavage cells following stimulation with IL-4 (20 ng/mL) for 72 hours, normalized to non-treated controls. (F) Viability following 72 hour dose-response to JAK1/2 inhibitor Ruxolitinib in the presence or absence of IL-4 (10 ng/mL) stimulation, measured by CyQuant Direct DNA-based viability assay. Viability normalized to respective controls lacking Ruxolitinib. (G&H) Dose-response of STAT6 inhibitor AS1517499 against luciferase activity (G) and viability via CyQuant Direct assay (H) following 72 hour treatment in the presence and absence of IL-4 (10 ng/mL). Results normalized to respective controls (with or without IL-4) lacking STAT6 inhibitor. Statistical significance is calculated with respect to the difference between IL-4 stimulated and non-stimulated cells at each concentration of STAT6 inhibitor. (I) Relative luciferase activity per cell following repolarization with M1- and M2-inducing agents. Macrophages were left non-treated (NT) or treated with either LPS (1 ng/ml) or IL-4 (20 ng/ml) for 72 hours (days 1-3), as indicated. For each treatment set, samples were collected at 72 hours (no further treatment; days 4-6=x). Alternatively, cells were washed and placed in fresh medium (−), medium containing LPS (1 ng/mL) and IFN-γ (10 ng/mL), or medium containing IL-4 (20 ng/mL) and IL-13 (10 ng/mL) and incubated for an additional 72 hours prior to sample collection (as indicated for days 4-6). Luciferase activity is expressed as the percent activity per cell relative to non-treated (NT) controls after the first 72 hours.
Luciferase activity of cell lysates was accessed using Bright-Glo™ Luciferase Assay System (Promega; Madison, Wis.) according to manufacturer's instructions with minor modifications. […]

Entries after “also recorded” stand apart in the source; their conditions may differ.

For the molecule `O=C(NCCCc1cn[nH]c1)c1ccc(-c2ccncc2)c(C#Cc2ccc(F)cc2)c1` [OT-82], the “β-galactosidase expression/activity in SAMs” value in assay [1] (OT-82, 500 nM) is “no effect; also recorded: little effect”. Besides, in assay [2] (OT-82, 500 nM), the “expression of p16 (luciferase) in SAMs” value is reported as “selectively decrease; also recorded: significantly downregulates”. Moreover, the “Modulation of p16(Ink4a): SAMs” value in assay [2] is listed as “decrease”.
As for IFN-α, in assay [1], the “effect on β-gal activity (polarizing agents)” value (“effect on β-gal activity” below) is recorded as “without affecting β-gal activity”. For the same molecule, the “effect on luciferase activity (M1-inducing agents)” value (shortened to “effect on luciferase activity”) in assay [2] was “decreased luciferase activity”.
For `COc1ccc(C2CC(=NO)c3c(SCc4ccccc4)sc(C(=O)NCc4cccc(F)c4)c3C2)cc1` (stereo not shown) [Example A1.6, 3-(Benzylthio)-N-(3-fluorobenzyl)-4-(hydroxyimino)-6-(4-methoxyphenyl)-4,5,6,7-tetrahydrobenzo[c]thiophene-1-carboxamide], the “β-galactosidase production by SAM cells (MUG assay)” value in assay [1] (listed as TA-4812) is on record as “reduce β-galactosidase production”; in assay [1] (listed as TA-04812-1), “reducing β-gal expression”. Further, the “Modulation of p16(Ink4a): SAMs” value in assay [2] is “decrease”.
With Poly(I:C), in assay [1], the “effect on β-gal activity” value was “without affecting β-gal activity”. Also, in assay [1] (Poly(I:C), 72 hr), the “β-galactosidase activity, dose-response” value was “no effect”. The “luciferase activity, dose-response” value in assay [2] (72 hr, selective to macrophages) is “dose-dependent decrease”. In assay [2], the “effect on luciferase activity” value is on record as “decreased luciferase activity” and the “Modulation of p16(Ink4a): SAMs” value is “decrease”.
Turning to IL-13: M2-polarizing cytokine, in assay [1], the “effect on β-gal activity” value is recorded as “without modulating β-gal activity”. Also, the “Modulation of p16(Ink4a): SAMs” value in assay [2] is reported as “increase”.
The corresponding values for IL-4: M2-polarizing cytokine are “without modulating β-gal activity” and “increase”.

B1: IFN-γ: type II interferon, M1-inducing agent (protein, UniProt P01579 24-161, looked up)
Interferon gamma: QDPYVKEAENLKKYFNAGHSDVADNGTLFLGILKNWKEESDRKIMQSQIVSFYFKLFKNFKDDQSIQKSVETIKEDMNVKFFNSNKKKRDDFEKLTNYSVTDLNVQRKAIHELIQVMAELSPAAKTGKRKRSQMLFRG
For B1, in assay [1], the “effect on β-gal activity” value is “without affecting β-gal activity”. In addition, in assay [2], the “effect on luciferase activity” value is listed as “decreased luciferase activity”.
